US5112809A, “CRF analogs” (The Salk Institute for Biological Studies, priority 1990, dated 1992)

Tested on: cultured rat pituitary cells
Test: secretion of ACTH and β-endorphin by cultured rat pituitary cells in vitro
Format: cell-based
Details: read-out: concentration at which half-maximal responses are observed (stimulation of secretion of ACTH and β-endorphin)
Description: The synthetic peptides from Example I and synthetic oCRF are examined for their effects on the secretion of ACTH and β-endorphin in vitro and also in vivo. The potency of synthetic oCRF to stimulate the secretion of ACTH and β-endorphin by cultured rat pituitary cells is measured using the procedure as generally set forth in Endocrinology, 91, 562 (1972). Half-maximal responses are observed at concentrations of the two peptides which are less than the synthetic oCRF concentration of about 250 picomolar which is needed to achieve such a response. In vivo testing using the general procedure set forth in C.

EC50: ~250 pM
Substance: oCRF: ovine corticotropin releasing factor, 41-residue peptide, formula disclosed in U.S. Pat. No. 4,415,558
